One series has as its system vaccinia virus. The series can be described thus: microbe, parasite or virus in culture. To be noted: for IC50: HFF cells, 3 days, read-out: Vaccinia Plaque Reduction (IC50). Type of series: cell-based.
Series [1] deals with T1, biphenyl hydrolase-like enzyme (BPHL) (Homo sapiens, UniProt Q86WA6).
T1 sequence (Q86WA6 38-291): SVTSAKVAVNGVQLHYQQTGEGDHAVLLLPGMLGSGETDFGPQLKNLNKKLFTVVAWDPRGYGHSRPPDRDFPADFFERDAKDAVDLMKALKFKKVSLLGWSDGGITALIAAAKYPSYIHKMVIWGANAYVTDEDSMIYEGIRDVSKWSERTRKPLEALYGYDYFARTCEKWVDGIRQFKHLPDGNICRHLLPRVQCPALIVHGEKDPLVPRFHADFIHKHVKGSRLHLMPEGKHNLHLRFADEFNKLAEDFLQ
It is filed as biochemical.

For series [2], the target named is T2, HPEPT1 (Homo sapiens, UniProt P46059).
T2 sequence (P46059 1-708): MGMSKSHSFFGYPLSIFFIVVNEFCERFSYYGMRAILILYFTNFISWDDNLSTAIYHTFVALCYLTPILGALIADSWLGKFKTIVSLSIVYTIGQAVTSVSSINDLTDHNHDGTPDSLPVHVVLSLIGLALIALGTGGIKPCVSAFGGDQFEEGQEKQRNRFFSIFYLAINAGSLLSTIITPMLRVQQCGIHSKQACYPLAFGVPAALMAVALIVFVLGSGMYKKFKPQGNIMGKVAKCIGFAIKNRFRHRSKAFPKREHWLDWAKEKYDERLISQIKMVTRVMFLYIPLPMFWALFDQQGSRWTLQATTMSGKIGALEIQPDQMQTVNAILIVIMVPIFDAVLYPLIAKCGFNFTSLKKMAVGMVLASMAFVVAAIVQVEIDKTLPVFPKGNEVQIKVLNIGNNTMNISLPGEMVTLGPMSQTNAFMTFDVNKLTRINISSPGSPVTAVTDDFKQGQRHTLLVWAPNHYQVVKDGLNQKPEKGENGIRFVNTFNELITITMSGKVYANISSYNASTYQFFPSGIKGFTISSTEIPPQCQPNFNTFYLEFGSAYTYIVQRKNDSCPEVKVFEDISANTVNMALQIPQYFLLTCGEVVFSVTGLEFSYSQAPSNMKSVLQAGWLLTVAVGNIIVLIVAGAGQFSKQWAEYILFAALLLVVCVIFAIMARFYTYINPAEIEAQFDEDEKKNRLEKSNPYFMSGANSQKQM
The series can be described thus: Inhibition of radiolabelled Gly-Sar uptake in DC5 cells overexpressing HPEPT1. The arrangement: expressed in transfected cells; host or cells: HeLa cells overexpressing hPEPT1 (called 'HPEPT1 infected cells'). The settings on record: inhibition of Gly-Sar uptake, DC5 cells overexpressing HPEPT1, 10 min, 37° C.; read-out: DC5 IC50. Type of series: cell-based. On the procedure:
Amino acid prodrugs are tested for their interaction with the dipeptide transporter, HPEPT1, using tissue culture cells that are engineered to overexpress HPEPT1. In this example, the cells that overexpress HPEPT1, termed DC5, are a human meduloblastoma cell line that is stably transfected with a eukaryotic expression vector encoding HPEPT1. […] DC5 cells are plated at a density of 12,000 cells/well in 96-well tissue culture plates and allowed to grow for 2 days. The cells are washed once with 200 microliters of uptake buffer and aspirated. The plates are cooled to 4° C. and 25 ul of uptake buffer containing 125 nanomoles Gly-Sar (at a specific activity of 1 microcurie/micromole) is added. The uptake buffer also contains the prodrugs to be tested at concentrations ranging from 10 micromolar to 20 millimolar. The assay is initiated by placing the plate in a shaking water bath at 37° C. and is terminated after 10 min by rapid washing with multiple changes of 4° C. phosphate buffered saline (PBS). The radioactive Gly-Sar peptide that is transported by the hpept1 is extracted from the cell layer with 200 ul of a one to one mixture of methanol and water and is counted in 4 ml of CytoScint ES™ scintillation cocktail (ICN). The data are plotted as % Gly-Sar uptake of control (no competitive substrate) versus the competitive substrate concentration. […] Typically, values that are below 10 mM indicate that the drug interacts with transporter.

The target in series [3] is T2, HPEPT1. To be noted: for Uptake (hPepT1): HeLa cells overexpressing HPEPT1, 50 micromolar, pH 6.0, 45 minutes; for hPepT1/Control: ratio of uptake in hPepT1 cells versus control cells.
Series [4] can be described thus: Intestinal absorption after direct duodenal injection in anesthetized rats, plasma by LC/MS/MS. To be noted: for plasma Ara A levels after dosing (in words) / prodrug absorption / prodrug concentrations in systemic plasma (in words): rat, duodenal injection. How it is done: The systemic plasma profiles of the prodrug, Ara A, and its main metabolite, Ara H are then monitored by removing plasma from a jugular vein cannula over a 4 hour period and assaying by LC/MS/MS assay.
Animals were dosed with Ara A at a level of 1.5 mg/rat via direct duodenal injection into anesthetized rats (n=2 per compound). Plasma samples were taken from the jugular vein at 0, 1, 2, and 4 hours from the jugular vein and were assayed for Ara A (▪), and Ara H (♦) by LC/MS/MS.
Animals were dosed with 5′-O-L isoleucyl Ara A prodrug at a level of 2.7 mg/rat via direct duodenal injection into anesthetized rats (n=3 per compound). Plasma samples were taken from the jugular vein at 0, 0.5, 1, 2, and 4 hours from the jugular vein and were assayed for prodrug (□), Ara A (▪), and Ara H (♦) by LC/MS/MS.
FIG. 6 is a graph showing mean plasma profiles of Ara A, Ara H, and 5′-O-D Isoleucyl Ara A after administration of 5′-O-D Isoleucyl Ara A into the duodenum of a rat. Animals were dosed with 5′-O-D Isoleucyl Ara A prodrug at a level of 2.7 mg/rat via direct duodenal injection into anesthetized rats (n=2). Plasma samples were taken from the jugular vein at 0, 0.5, 1, 2, and 4 hours from the jugular vein and were assayed for prodrug (□), Ara A (▪), and Ara H (♦) by LC/MS/MS.
FIG. 7 is a graph showing mean plasma profiles of Ara A, Ara H, and 5′-O-L Valyl Ara A after administration of 5′-O-L Valyl Ara A into the duodenum of a rat. Animals were dosed with 5′-O-L Valyl Ara A prodrug at a level of 3 mg/rat via direct duodenal injection into anesthetized rats (n=2). Plasma samples were taken from the jugular vein at 0, 0.5, 1, 2, and 4 hours from the jugular vein and were assayed for prodrug (□), Ara A (▪), and Ara H (♦) by LC/MS/MS.
FIG. 8 is a graph showing mean plasma profiles of Ara A, Ara H, and 5′-O-D Valyl Ara A after administration of 5′-O-D Valyl Ara A into the duodenum of a rat. Animals were dosed with 5′-O-D Valyl Ara A prodrug at a level of 3.0 mg/rat via direct duodenal injection into anesthetized rats (n=3). Plasma samples were taken from the jugular vein at 0, 0.5, 1, 2, and 4 hours from the jugular vein and were assayed for prodrug (□), Ara A (▪), and ara H (♦) by LC/MS/MS.
FIG. 9 is a graph showing mean plasma profiles of Ara A, Ara H, and 5′-O-Glycyl Ara A after administration of 5′-O-Glycyl Ara A into the duodenum of a rat. Animals were dosed with 5′-O-Glycyl Ara A prodrug at a level of 3.0 mg/rat via direct duodenal injection into anesthetized rats (n=2). Plasma samples were taken from the jugular vein at 0, 0.5, 1, 2, and 4 hours from the jugular vein and were assayed for prodrug (□), Ara A (▪), and Ara H (♦) by LC/MS/MS.

The next series has as its system KB cell. In words: KB cell cytotoxicity. The settings on record: read-out: KB cell cytotoxicity (IC50).
Series [5] concerns the target T3, human dipeptide transporter, hPept1 (Homo sapiens, UniProt P46059).
T3 sequence (P46059 1-708): T2 sequence (P46059 1-708)

Where only a bound is given, the exact number is not on record here.

By IC50 is commonly meant the concentration at which inhibition is half-maximal.

Consider `OC[C@H]1O[C@@H](n2cnc3c2N=CNC[C@H]3O)C[C@@H]1O` [2′-deoxycoformycin, reference compound], for which the “effect on virus replication” value in the series with vaccinia virus (2′-deoxycoformycin alone at 1 micromolar) was “no effect on virus replication”.

On to `NCCCC[C@H](N)C(=O)O[C@H]1C[C@H](n2cc(F)c(=O)[nH]c2=O)O[C@@H]1CO` [3′ lysyl monoester Floxuridine], for which the “% of Control (VACV)” value in series [1] is reported as 7.3%.

With `NCCCCC(N)C(=O)OCC1OC(n2cc(F)c(=O)[nH]c2=O)CC1OC(=O)C(N)CCCCN` (centres unmarked) [3′,5′ lysyl diester Floxuridine], the “% of Control (VACV)” value in series [1] was determined as 0.0%.

On to `NC(CC(=O)O)C(=O)OCC1OC(n2cc(F)c(=O)[nH]c2=O)CC1OC(=O)C(N)CC(=O)O` (centres unmarked) [3′,5′-di-O-aspartyl-Floxuridine], for which, in series [1], the “% of Control (VACV)” value turned out to be 0.0%. Moreover, at HPEPT1 [2], the 50% inhibitory concentration (IC50) turned out to be 9550 µM.

With `N[C@@H](Cc1ccccc1)C(=O)OC[C@H]1O[C@@H](n2cc(F)c(=O)[nH]c2=O)C[C@@H]1OC(=O)[C@@H](N)Cc1ccccc1` [3′,5′-di-O-phenylalanyl-Floxuridine], the “% of Control (VACV)” value in series [1] was determined as 8.9%. The IC50 at HPEPT1 [2] is 2780 µM. Moreover, at HPEPT1 [3], the “Uptake (hPepT1)” value turned out to be 2.96 ± 0.13 nmole/mg/45 min and the hPepT1/Control came out at 9.53.

With `CC(C)C(N)C(=O)OC[C@H]1O[C@@H](n2cc(F)c(=O)[nH]c2=O)C[C@@H]1OC(=O)C(N)C(C)C` (some centres unmarked) [3′,5′-di-O-valyl-Floxuridine], the “% of Control (VACV)” value in series [1] came to 1.7%. Further, the IC50 on HPEPT1 [2] stood at 1600 µM. At HPEPT1 [3], the “Uptake (hPepT1)” value was 2.78 ± 0.37 nmole/mg/45 min and the hPepT1/Control is reported as 5.18.

For the molecule `NC(CC(=O)O)C(=O)OC1CC(n2cc(F)c(=O)[nH]c2=O)OC1CO` (centres unmarked) [3′-O-aspartyl-Floxuridine], in series [1], the “% of Control (VACV)” value turned out to be 2.0%. For the same molecule, at HPEPT1 [2], the IC50 was determined as 10500 µM.

As to `NC(Cc1ccccc1)C(=O)O[C@H]1C[C@H](n2cc(F)c(=O)[nH]c2=O)O[C@@H]1CO` (some centres unmarked) [3′-O-phenylalanyl-Floxuridine], the “% of Control (VACV)” value in series [1] is 24.4%. Besides, the concentration for half-maximal inhibition (IC50) at HPEPT1 [2] is 3480 µM. For the same molecule, on HPEPT1 [3], the “Uptake (hPepT1)” value came out at 0.83 ± 0.19 nmole/mg/45 min and the hPepT1/Control is listed as 2.56.

Take `CC(C)[C@H](N)C(=O)O[C@H]1C[C@H](n2cc(F)c(=O)[nH]c2=O)O[C@@H]1CO` [3′-O-valyl-Floxuridine]: in series [1], the “% of Control (VACV)” value amounted to 3.3%. Besides, the concentration for half-maximal inhibition (IC50) at HPEPT1 [2] is 980 µM. On HPEPT1 [3], the “Uptake (hPepT1)” value was 1.35 ± 0.13 nmole/mg/45 min and the hPepT1/Control is given as 1.03.

Regarding `NCCCC[C@H](N)C(=O)OC[C@H]1O[C@@H](n2cc(F)c(=O)[nH]c2=O)C[C@@H]1O` [5′ lysyl monoester Floxuridine], the “% of Control (VACV)” value in series [1] is 8.1%.

Consider `CC[C@@H](C)[C@@H](N)C(=O)OC[C@H]1O[C@@H](n2cnc3c(N)ncnc32)[C@@H](O)[C@@H]1O` [5′-O-D-isoleucyl Ara A], for which the figures for the 50% inhibitory concentration (IC50) in the series with vaccinia virus and with KB cell were 3 µM and above 100 µM, respectively. Further, the “plasma Ara A levels after dosing (in words)” value (“plasma Ara A levels” for short) in series [4] is “increased levels of plasma Ara A”.

On to `CC(C)[C@@H](N)C(=O)OC[C@H]1O[C@@H](n2cnc3c(N)ncnc32)[C@@H](O)[C@@H]1O` [5′-O-D-valyl Ara A], for which the concentration for half-maximal inhibition (IC50) in the series with vaccinia virus was determined as 3.5 µM. For the same molecule, the “AUC0-4 hr of Prodrug” value in series [4] (rat plasma, duodenal injection of the named prodrug) came to 637 ± 74 ng·h/mL. For the same molecule, in series [4], the “plasma Ara A levels” value is given as “Increased levels of plasma Ara A”; the “prodrug absorption / prodrug concentrations in systemic plasma (in words)” value was “extended and enhanced concentrations of the prodrug in systemic plasma”. In addition, the IC50 with KB cell was above 100 µM.

As to `C[C@H](N)C(=O)NCC(=O)OC[C@H]1O[C@@H](n2cnc3c(N)ncnc32)[C@@H](O)[C@@H]1O` [5′-O-L-alagly Ara A], in series [5], the hPepT1/Control was 1.48.

On to `NC(CC(=O)O)C(=O)OCC1OC(n2cc(F)c(=O)[nH]c2=O)CC1O` (centres unmarked) [5′-O-aspartyl-Floxuridine], for which the “% of Control (VACV)” value in series [1] is on record as 2.3%. For the same molecule, the half-maximal inhibitory concentration (IC50) on HPEPT1 [2] was determined as 8300 µM.

For `NCC(=O)OC[C@H]1O[C@@H](n2cnc3c(N)ncnc32)[C@@H](O)[C@@H]1O` [5′-O-glycyl Ara A], the IC50 in the series with vaccinia virus worked out at 15 µM. Also, in series [4], the “plasma Ara A levels” value is “relatively low plasma levels” and the “prodrug absorption / prodrug concentrations in systemic plasma (in words)” value is recorded as “limited intestinal absorption of the prodrug”. Further, the half-inhibitory concentration (IC50) with KB cell was above 100 µM.

`N[C@@H](Cc1ccccc1)C(=O)OC[C@H]1O[C@@H](n2cc(F)c(=O)[nH]c2=O)C[C@@H]1O` [5′-O-phenylalanyl-Floxuridine]: the “% of Control (VACV)” value in series [1] is recorded as 52.8%. Further, the IC50 at HPEPT1 [2] is 3700 µM. Moreover, at HPEPT1 [3], the “Uptake (hPepT1)” value came to 1.58 ± 0.20 nmole/mg/45 min and the hPepT1/Control is recorded as 12.34.

Turning to `CC(C)[C@H](N)C(=O)OC[C@H]1O[C@@H](n2cc(F)c(=O)[nH]c2=O)C[C@@H]1O` [5′-O-valyl-Floxuridine], the “% of Control (VACV)” value in series [1] turned out to be 91.1%. Also, at HPEPT1 [2], the half-inhibitory concentration (IC50) was found to be 1170 µM. In addition, on HPEPT1 [3], the “Uptake (hPepT1)” value is on record as 3.42 ± 0.09 nmole/mg/45 min and the hPepT1/Control turned out to be 19.24.

(Values after patent US20070167353A1, “PRODRUG COMPOSITION” (priority 2003, published 2007).)
